Experimental data reported in patent publication US20150031572A1, “MEANS AND METHODS FOR ASSESSING NEURONAL TOXICITY” (priority 2012, published 2015).
Marks after values point to notes of the source that are not given here.

Test: Plasma metabolite profiling (GC-MS, LC-MS, SPE-LC-MS) of rats dosed once daily over 28 days; treatment ratios versus untreated control
Format: in vivo, rat
Details: plasma
Protocol: A group of each 5 male and female rats was dosed once daily with the indicated compounds (see Table 10, below for compounds, applied doses and administration details) over 28 days.
Each dose group in the studies consisted of five rats per sex. Additional groups of each 5 male and female animals served as controls. Before starting the treatment period, animals, which were 62-64 days old when supplied, were acclimatized to the housing and environmental conditions for 7 days. All animals of the animal population were kept under the same constant temperature (20-24±3° C.) and the same constant humidity (30-70%). The animals of the animal population were fed ad libitum. The food to be used was essentially free of chemical or microbial contaminants. Drinking water was also offered ad libitum. Accordingly, the water was free of chemical and microbial contaminants as laid down in the European Drinking Water Directive 98/83/EG. The illumination period was 12 hours light followed by 12 hours darkness (12 hours light, from 6:00 to 18:00, and 12 hours darkness, from 18:00 to 6:00). […] The test substances (compounds) in the Tables 1 to 9 below were dosed and administered as described in the Table 10 above.
In the morning of day 7, 14, and 28, blood was taken from the retro-orbital venous plexus from fasted anaesthetized animals. From each animal, 1 ml of blood was collected with EDTA as anticoagulant. The samples were centrifuged for generation of plasma. All plasma samples were covered with a N2 atmosphere and then stored at −80° C. until analysis.
For mass spectrometry-based metabolite profiling analyses plasma samples were extracted and a polar and a non-polar (lipid) fraction was obtained. For GC-MS analysis, the non-polar fraction was treated with methanol under acidic conditions to yield the fatty acid methyl esters. Both fractions were further derivatised with O-methyl-hydroxyamine hydrochloride and pyridine to convert Oxogroups to O-methyloximes and subsequently with a silylating agent before analysis. In LC-MS analysis, both fractions were reconstituted in appropriate solvent mixtures. HPLC was performed by gradient elution on reversed phase separation columns. Mass spectrometric detection which allows target and high sensitivity MRM (Multiple Reaction Monitoring) profiling in parallel to a full screen analysis was applied as described in WO2003073464.
Steroids and their metabolites were measured by online SPE-LC-MS (Solid phase extraction-LC-MS).
Following comprehensive analytical validation steps, the data for each analyte were normalized against data from pool samples. These samples were run in parallel through the whole process to account for process variability. The significance of treatment group values specific for sex, treatment duration and metabolite was determined by comparing means of the treated groups to the means of the respective untreated control groups using WELCH-test and quantified with treatment ratios versus control and p-values.
The identification of the most important biomarkers per toxicity pattern was done by a ranking of the analytes in the tables below. Therefore the metabolic changes in reference treatments of a given pattern (shown in the table) were compared with changes of the same metabolite in other unrelated treatments. […] The maximum absolute value of the respective TVALUE was taken to indicate the most important metabolite for the pattern.

[1] = female rats, day 7, high dose, Table 9a
[2] = female rats, day 7, high dose, Table 9b
[3] = female rats, day 14, high dose, Table 9a
[4] = female rats, day 14, high dose, Table 9b
[5] = female rats, day 28, high dose, Table 9a
[6] = female rats, day 28, high dose, Table 9b
[7] = male rats, day 7, high dose, Table 9c
[8] = male rats, day 7, high dose, Table 9d
[9] = male rats, day 14, high dose, Table 9c
[10] = male rats, day 14, high dose, Table 9d
[11] = male rats, day 28, high dose, Table 9c
[12] = male rats, day 28, high dose, Table 9d

SMILES: O=C1CCCC(=O)C1C(=O)c1ccc(C(F)(F)F)cc1[N+](=O)[O-] [NTBC (HPPD-Inhibitor), NTBC]
- 4-Hydroxyphenylpyruvate, ratio versus control [1]: 245.75*
- Glycine, ratio versus control [1]: 1.2*
- Phosphatidylcholine (C18:0,C18:2), ratio versus control [1]: 1.03*
- Serine, ratio versus control [1]: 1.38*
- TAG (C16:0,C18:2), ratio versus control [1]: 1.62*
- TAG (C18:1,C18:2), ratio versus control [1]: 2.45*
- TAG (C18:2,C18:2), ratio versus control [1]: 1.91*
- Threonine, ratio versus control [1]: 1.43*
- Tyrosine, ratio versus control [1]: 37.75*
- gamma-Linolenic acid (C18:cis[6,9,12]3), ratio versus control [1]: 1.34
- 5-Oxoproline, ratio versus control [2]: 0.5*
- Glutamine, ratio versus control [2]: 0.54*
- 4-Hydroxyphenylpyruvate, ratio versus control [3]: 293.51*
- Glycine, ratio versus control [3]: 1.33*
- Phosphatidylcholine (C18:0,C18:2), ratio versus control [3]: 1
- Serine, ratio versus control [3]: 1.48*
- TAG (C16:0,C18:2), ratio versus control [3]: 1.37*
- TAG (C18:1,C18:2), ratio versus control [3]: 2.22*
- TAG (C18:2,C18:2), ratio versus control [3]: 1.92*
- Threonine, ratio versus control [3]: 1.82*
- Tyrosine, ratio versus control [3]: 50.64*
- gamma-Linolenic acid (C18:cis[6,9,12]3), ratio versus control [3]: 1.61*
- 5-Oxoproline, ratio versus control [4]: 0.55*
- Glutamine, ratio versus control [4]: 0.46*
- 4-Hydroxyphenylpyruvate, ratio versus control [5]: 276.92*
- Glycine, ratio versus control [5]: 1.48*
- Phosphatidylcholine (C18:0,C18:2), ratio versus control [5]: 1.05*
- Serine, ratio versus control [5]: 1.43*
- TAG (C16:0,C18:2), ratio versus control [5]: 1.44*
- TAG (C18:1,C18:2), ratio versus control [5]: 1.51*
- TAG (C18:2,C18:2), ratio versus control [5]: 1.31*
- Threonine, ratio versus control [5]: 1.52*
- Tyrosine, ratio versus control [5]: 38.31*
- gamma-Linolenic acid (C18:cis[6,9,12]3), ratio versus control [5]: 1.55*
- 5-Oxoproline, ratio versus control [6]: 0.69*
- Glutamine, ratio versus control [6]: 0.48*
- 4-Hydroxyphenylpyruvate, ratio versus control [7]: 364.14*
- Lysine, ratio versus control [7]: 1.12
- Threonine, ratio versus control [7]: 1.36*
- Tyrosine, ratio versus control [7]: 56.14*
- 5-Oxoproline, ratio versus control [8]: 0.6*
- Citrulline, ratio versus control [8]: 0.84*
- Glutamine, ratio versus control [8]: 0.55*
- Phenylalanine, ratio versus control [8]: 0.78*
- 4-Hydroxyphenylpyruvate, ratio versus control [9]: 435.77*
- Lysine, ratio versus control [9]: 1.4*
- Threonine, ratio versus control [9]: 1.51*
- Tyrosine, ratio versus control [9]: 58.08*
- 5-Oxoproline, ratio versus control [10]: 0.61*
- Citrulline, ratio versus control [10]: 0.88*
- Glutamine, ratio versus control [10]: 0.57*
- Phenylalanine, ratio versus control [10]: 0.77*
- 4-Hydroxyphenylpyruvate, ratio versus control [11]: 366.39*
- Lysine, ratio versus control [11]: 1.46*
- Threonine, ratio versus control [11]: 1.54*
- Tyrosine, ratio versus control [11]: 52.56*
- 5-Oxoproline, ratio versus control [12]: 0.6*
- Citrulline, ratio versus control [12]: 0.83*
- Glutamine, ratio versus control [12]: 0.58*
- Phenylalanine, ratio versus control [12]: 1.02
